According to patent publication US20090186079A1, “Oral and overall health by negating the biological effects of bacterial lipids” (priority 2008, published 2009):

Columns and labels:
Type in all cases: cell-based
[1] = test system: Human primary gingival fibroblasts; experiment: Detergent treatment of lipid-bearing surfaces, gingival fibroblast morphology; conditions: 0.1% detergent in PBS, 1 mL on PGDHC-coated wells, 4° C. overnight
Procedure: Tissue culture flasks coated with bacterial lipids were used as a model of lipid-coated biological surfaces. Human primary gingival fibroblasts were maintained in 10 mm dishes in Minimun Essential Medium (GIBCO Cat #10370) 90% with 10% heat-inactivated FCS, penicillin (100 U/ml) and streptomycin ([…]). The cells were plated onto the 6-well tissue culture plate with individual wells treated as indicated below and grown at 37° C. in a humidified atmosphere of 5% CO2 in air.
Lipid coating: The HPLC-purified P. gingivalis phosphoglycerol dihydroceramide (PGDHC) was dissolved in ethanol and added to the 6-well tissue culture plate (10 μg of lipid/well, 10.5 ng/mm^2). The solvent was allowed to evaporate in a laminar flow hood overnight leaving the lipid deposited on the culture well surface. Sham-coated control wells received only ethanol solvent.
Detergents: 3-[(3-Cholamidopropyl) dimethylammonio]-1-propanesulfonate (CHAPS), Sodium cholate (Cholate), and Tween-20 (Tween) were dissolved at the concentration of 0.1% in phosphate buffered saline (Gibco cat. 1490). 1 mL of freshly prepared […] was added to the wells coated with P. gingivalis phosphoglycerol dihydroceramide. 1 mL of PBS was added to phosphoglycerol dihydroceramide-coated well as a control. The plate was incubated at 4° C. overnight on a rocking platform.
Detergent treatment of uncoated wells had no effect on primary fibroblasts (data not shown).

[2] = test system: Human primary gingival fibroblasts; experiment: Collagen coating of lipid-bearing surfaces, gingival fibroblast morphology
Procedure: Tissue culture flasks coated with bacterial lipids were used as a model of lipid-coated biological surfaces. Human primary gingival fibroblasts were maintained in 10 mm dishes in Minimun Essential Medium (GIBCO Cat #10370) 90% with 10% heat-inactivated FCS, penicillin (100 U/ml) and streptomycin ([…]). The cells were plated onto the 24-well tissue culture plate with individual wells treated as indicated below and grown at 37° C. in a humidified atmosphere of 5% CO2 in air.
Lipid coating: The HPLC-purified P. gingivalis phosphoglycerol dihydroceramide was dissolved in ethanol and added to the 24-well tissue culture plate (2 μg of lipid/well, 10.5 ng/mm^2). The solvent was allowed to evaporate in a laminar flow hood overnight leaving the lipid deposited on the culture well surface. Sham-coated control wells received only ethanol solvent.
Collagen coating: 0.5 mL of 50 μg/mL collagen dissolved in 0.02N Acetic acid was added to the 24-well tissue culture plate, and incubated at 4° C. overnight on a rocking platform. The collagen solution was aspirated, and the wells were washed with PBS.
The treatments were done in triplicate.

[3] = test system: peripheral blood monocytes; experiment: Morphological changes in peripheral blood monocytes on lipid-coated wells; conditions: treated with 1 μg/mL lipopolysaccharide, 26 hours
Procedure: Tissue culture flasks coated with bacterial lipids were used as a model of lipid-coated biological surfaces. The HPLC-purified P. gingivalis lipids were dissolved in ethanol and added to the tissue culture plate. The solvent was allowed to evaporate in a laminar flow hood overnight leaving the lipid deposited on the culture well surface. Sham-coated control wells received only ethanol solvent.
Peripheral blood monocytes were plated into 6-well culture dishes previously coated with the indicated lipid fractions (10 μg of lipid/well, 10.5 ng/mm^2) and were incubated for 26 hours. Culture (a) was the sham coating control, (b) was coated with the total lipid extract of P. gingivalis, (c) was coated with the P. gingivalis dihydroceramide fraction, (d) was coated with the phosphoethanolamine lipids and (e) was coated with the phosphoethanolamine dihydroceramide lipid fraction, (f) was treated with 1 μg/mL Salmonella typhimurium lipopolysaccharide.

Row | Compound | negation of the biological effect of surface-deposited PGDHC [1] | other results
1 | C[C@H](CCC(=O)NCCC[N+](C)(C)CCCS(=O)(=O)[O-])[C@H]1CC[C@H]2[C@@H]3[C@H](O)C[C@@H]4C[C@H](O)CC[C@]4(C)[C@H]3C[C@H](O)[C@]12C [CHAPS, 3-[(3-Cholamidopropyl)dimethylammonio]-1-propanesulfonate] | negated the biological effect of bacterial lipid | –
2 | C[C@H](CCC(=O)[O-])[C@H]1CC[C@H]2[C@@H]3[C@H](O)C[C@@H]4C[C@H](O)CC[C@]4(C)[C@H]3C[C@H](O)[C@]12C.[Na+] [sodium cholate, Sodium cholate] | negated the biological effect of bacterial lipid | –
3 | collagen | – | effect of coating alone on primary fibroblasts ([2]; 0.5 mL of 50 μg/mL collagen, wells without lipid): did not have any effect; blocking of the biological effect of surface-deposited phosphoglycerol dihydroceramide ([2]; collagen coated on top of PGDHC (2 μg of lipid/well, 10.5 ng/mm^2)): blocked the biological effect
4 | lipopolysaccharide | – | cell clustering of monocytes [3]: did not produce similar cell clustering
5 | polyoxyethylene(20) sorbitan monolaurate [Tween-20] | negated the biological effect of bacterial lipid | –
